≈ marks a conversion by molar mass, not a printed value.
Tests used:
Ehrlich [1] = experiment: Antitumor activity against Ehrlich ascites carcinoma cells in mouse assessed as haemoglobin level at 20 mg/kg after 14 days; assay type: functional
Ehrlich [2] = experiment: Antitumor activity against Ehrlich ascites carcinoma cells in mouse assessed as increase in life span at 20 mg/kg relative to control; assay type: functional
Ehrlich [3] = experiment: Antitumor activity against Ehrlich ascites carcinoma cells in mouse assessed as RBC count at 20 mg/kg after 14 days; assay type: functional
Ehrlich [4] = experiment: Antitumor activity against Ehrlich ascites carcinoma cells in mouse assessed as WBC count at 20 mg/kg after 14 days; assay type: functional
Ehrlich [5] = experiment: Antitumor activity against Ehrlich ascites carcinoma cells in mouse assessed as cell viability at 20 mg/kg after 5 days; assay type: functional
[6] = Displacement of methyl green from DNA; parameters: species or system Homo sapiens

| SMILES | Activity (Ehrlich [1]) | Activity (Ehrlich [2]) | Activity (Ehrlich [3]) | Activity (Ehrlich [4]) | Activity (Ehrlich [5]) | IC50 [6] |
| --- | --- | --- | --- | --- | --- | --- |
| O=c1[nH]cc(F)c(=O)[nH]1 [FLUOROURACIL] | 15.6% | 42.8% | 5.87 /10^6mm3 | 14.7 /10^3mm3 | 83.6 10^6/100microL |  |
| COc1cccc2c1C(=O)c1c(O)c3c(c(O)c1C2=O)C[C@@](O)(C(C)=O)C[C@@H]3O[C@H]1C[C@H](N)[C@H](O)[C@H](C)O1 [DAUNORUBICIN] |  |  |  |  |  | 28 µg/mL (≈ 53.1 µM) |

Source: ChEMBL document CHEMBL1139930, “Solvatochromism, DNA binding, antitumor activity and molecular modeling study of mixed-ligand copper(II) complexes containing the bulky ligand: bis[N-(p-tolyl)imino]acenaphthene” (Eur J Med Chem, 2007)
